How the values were obtained:
Assay type in all cases: in vivo
[1] = system: IPOHE; test: Pre-emergence biological efficacy; details: Ipomoea hederacea, 312 h, evaluated after 13 days, read-out: damage to plant (100=total damage to plant; 0=no damage to plant)
Procedure: (§1) Seeds of weeds and/or crops were sown in standard soil in pots. After cultivation for one day under controlled conditions in a glasshouse (at 24/19° C., day/night; 16 hours light), the plants were sprayed with an aqueous spray solution derived from the formulation of the technical active ingredient in a small amount of acetone and a special solvent and emulsifier mixture referred to as IF50 (11.12% Emulsogen EL360 TM+44.44% N-methylpyrrolidone+44.44% Dowanol DPM glycol ether), to create a 50g/l solution which was then diluted using 0.2% Genapol XO80 as diluent to give the desired final dose of test compound.
(§2) The test plants were then grown under controlled conditions in the glasshouse (at 24/18° C., day/night; 15 hours light; 50% humidity) and watered twice daily. After 13 days the test was evaluated (100=total damage to plant; 0=no damage to plant).

[2] = system: SETFA; test: Pre-emergence biological efficacy; details: Setaria faberi, 312 h, evaluated after 13 days, read-out: damage to plant (100=total damage to plant; 0=no damage to plant)
Procedure: as §1, §2

[3] = system: ECHCG; test: Pre-emergence biological efficacy; details: Echinochloa crus-galli, 312 h, evaluated after 13 days, read-out: damage to plant (100=total damage to plant; 0=no damage to plant)
Procedure: as §1, §2

[4] = system: AMAPA; test: Pre-emergence biological efficacy; details: Amaranthus palmeri, 312 h, evaluated after 13 days, read-out: damage to plant (100=total damage to plant; 0=no damage to plant)
Procedure: as §1, §2

[5] = system: EPHHL; test: Pre-emergence biological efficacy; details: Euphorbia heterophylla, 312 h, evaluated after 13 days, read-out: damage to plant (100=total damage to plant; 0=no damage to plant)
Procedure: as §1, §2

[6] = system: LOLPE; test: Pre-emergence biological efficacy; details: Lolium perenne, 312 h, evaluated after 13 days, read-out: damage to plant (100=total damage to plant; 0=no damage to plant)
Procedure: as §1, §2

[7] = system: IPOHE; test: Post-emergence biological efficacy; details: Ipomoea hederacea, 312 h, evaluated after 13 days, read-out: damage to plant (100=total damage to plant; 0=no damage to plant)
Procedure: as §1, with “14 days” for “one day”
(§3) The test plants were then grown under controlled conditions in the glasshouse (at 24/18° C., day/night; 15 hours light; 50% humidity)and watered twice daily. After 13 days the test was evaluated (100=total damage to plant; 0=no damage to plant).

[8] = system: ELEIN; test: Post-emergence biological efficacy; details: 312 h, evaluated after 13 days, read-out: damage to plant (100=total damage to plant; 0=no damage to plant)
Procedure: as §1, with “14 days” for “one day”
as §3

[9] = system: CHEAL; test: Post-emergence biological efficacy; details: Chenopodium album, 312 h, evaluated after 13 days, read-out: damage to plant (100=total damage to plant; 0=no damage to plant)
Procedure: as §1, with “14 days” for “one day”
as §3

[10] = system: DIGSA; test: Post-emergence biological efficacy; details: Digitaria sanguinalis, 312 h, evaluated after 13 days, read-out: damage to plant (100=total damage to plant; 0=no damage to plant)
Procedure: as §1, with “14 days” for “one day”
as §3

[11] = system: SETFA; test: Post-emergence biological efficacy; details: Setaria faberi, 312 h, evaluated after 13 days, read-out: damage to plant (100=total damage to plant; 0=no damage to plant)
Procedure: as §1, with “14 days” for “one day”
as §3

[12] = system: ECHCG; test: Post-emergence biological efficacy; details: Echinochloa crus-galli, 312 h, evaluated after 13 days, read-out: damage to plant (100=total damage to plant; 0=no damage to plant)
Procedure: as §1, with “14 days” for “one day”
as §3

[13] = system: AMAPA; test: Post-emergence biological efficacy; details: Amaranthus palmeri, 312 h, evaluated after 13 days, read-out: damage to plant (100=total damage to plant; 0=no damage to plant)
Procedure: as §1, with “14 days” for “one day”
as §3

[14] = system: EPHHL; test: Post-emergence biological efficacy; details: Euphorbia heterophylla, 312 h, evaluated after 13 days, read-out: damage to plant (100=total damage to plant; 0=no damage to plant)
Procedure: as §1, with “14 days” for “one day”
as §3

[15] = system: LOLPE; test: Post-emergence biological efficacy; details: Lolium perenne, 312 h, evaluated after 13 days, read-out: damage to plant (100=total damage to plant; 0=no damage to plant)
Procedure: as §1, with “14 days” for “one day”
as §3

Row | SMILES | pest or weed control at 250 g/ha [1] | pest or weed control at 250 g/ha [2] | pest or weed control at 250 g/ha [3] | pest or weed control at 250 g/ha [4] | pest or weed control at 250 g/ha [5] | pest or weed control at 250 g/ha [6] | pest or weed control at 250 g/ha [7] | pest or weed control at 250 g/ha [8] | pest or weed control at 250 g/ha [9] | pest or weed control at 250 g/ha [10] | pest or weed control at 250 g/ha [11] | pest or weed control at 250 g/ha [12] | pest or weed control at 250 g/ha [13] | pest or weed control at 250 g/ha [14] | pest or weed control at 250 g/ha [15]
1 | CCOC(=O)C1(C)CC(c2cc(-c3ccc(C(F)(F)F)cc3Cl)c(F)cc2Cl)=NO1 (stereo not drawn) [Compound 1-7, Ethyl 3-[2-chloro-5-[2-chloro-4-(trifluoromethyl)phenyl]-4-fluoro-phenyl]-5-methyl-4H-isoxazole-5-carboxylate] | 0% | 0% | 0% | 30% | 0% | 0% | 90% | 70% | 100% | 40% | 60% | 30% | 90% | 90% | 10%
2 | CCOC(=O)C1(C)CC(c2cc(-c3ccccc3Cl)c(F)cc2Cl)=NO1 (stereo not drawn) [Compound 1-19, Ethyl 3-[2-chloro-5-(2-chlorophenyl)-4-fluoro-phenyl]-5-methyl-4H-isoxazole-5-carboxylate] | 0% | 0% | 0% | 0% | 0% | 0% | 80% | 20% | 90% | 20% | 40% | 20% | 90% | 90% | 10%
3 | CCOC(=O)C1(C)CC(c2cc(-c3ccc(C)cc3Cl)c(F)cc2Cl)=NO1 (stereo not drawn) [Compound 1-31, Ethyl 3-[2-chloro-5-(2-chloro-4-methyl-phenyl)-4-fluoro-phenyl]-5-methyl-4H-isoxazole-5-carboxylate] | 0% | 0% | 0% | 30% | 10% | 0% | 90% | 70% | 100% | 30% | 50% | 30% | 100% | 80% | 20%
4 | CCOC(=O)C1(C)CC(c2cc(-c3cccc(C(F)(F)F)n3)c(F)cc2Cl)=NO1 (stereo not drawn) [Compound 1-43, Ethyl 3-[2-chloro-4-fluoro-5-[6-(trifluoromethyl)-2-pyridyl]phenyl]-5-methyl-4H-isoxazole-5-carboxylate] | 0% | 0% | 0% | 20% | 0% | 0% | 60% | 70% | 80% | 30% | 90% | 20% | 80% | 20% | 0%
5 | CCOC(=O)C1(C)CC(c2cc(-c3cc(C(F)(F)F)cc(Cl)n3)c(F)cc2Cl)=NO1 (stereo not drawn) [Compound 1-67, Ethyl 3-[2-chloro-5-[6-chloro-4-(trifluoromethyl)-2-pyridyl]-4-fluoro-phenyl]-5-methyl-4H-isoxazole-5-carboxylate] | 0% | 0% | 0% | 10% | 0% | 0% | 30% | 0% | 10% | 10% | 20% | 0% | 20% | 40% | 0%
6 | CCOC(=O)C1(C)CC(c2cc(-c3ccnc(Cl)c3Cl)c(F)cc2Cl)=NO1 (stereo not drawn) [Compound 1-535, Ethyl 3-[2-chloro-5-(2,3-dichloro-4-pyridyl)-4-fluoro-phenyl]-5-methyl-4H-isoxazole-5-carboxylate] | 40% | 40% | 10% | – | 0% | 0% | 100% | 80% | 100% | 90% | 100% | 80% | 100% | 100% | 50%
7 | CCOC(=O)C1(C)CC(c2cc(-c3ccc(OC)nn3)c(F)cc2Cl)=NO1 (stereo not drawn) [Compound 1-703, Ethyl 3-[2-chloro-4-fluoro-5-(6-methoxypyridazin-3-yl)phenyl]-5-methyl-4H-isoxazole-5-carboxylate] | 0% | 0% | 0% | – | 0% | 0% | 60% | 70% | 100% | 70% | 70% | 80% | 100% | 100% | 70%
8 | CCOC(=O)C1(C)CC(c2cc(-c3cnc(C(F)(F)F)cn3)c(F)cc2Cl)=NO1 (stereo not drawn) [Compound 1-751, Ethyl 3-[2-chloro-4-fluoro-5-[5-(trifluoromethyl)pyrazin-2-yl]phenyl]-5-methyl-4H-isoxazole-5-carboxylate] | 50% | 40% | 50% | 20% | – | 20% | 100% | 100% | 100% | 100% | 100% | 100% | 100% | 100% | 70%
9 | CCOC(=O)C1(C)CC(c2cc(-c3cc(C(F)(F)F)cnc3Br)c(F)cc2Cl)=NO1 (stereo not drawn) [Compound 1-835, Ethyl 3-[5-[2-bromo-5-(trifluoromethyl)-3-pyridyl]-2-chloro-4-fluoro-phenyl]-5-methyl-4H-isoxazole-5-carboxylate] | 10% | 0% | 0% | 70% | 0% | 0% | – | – | – | – | – | – | – | – | –
